Results published in patent US12644099B2, “Methods for making T cell compositions” (2seventy bio, Inc., priority 2014, dated 2026).
“Also recorded” adds a separate entry of the source.

Key:
Daudi tumor = experiment: Anti-tumor activity of cultured anti-BCMA CAR T cells in aggressive Daudi tumor model; format: in vivo
From the text: Daudi tumor cells express a low level of BCMA protein and can be effectively treated using anti-BCMA CAR T cells.

T cells [1] = experiment: CD62L expression on T cells treated with MK-2206; format: cell-based
Description: The purpose of this experiment was to determine the effect of Akt inhibitors on T cell markers for T cell potency. The impact of MK-2206 (Selleckchem) on T cell potency was assessed by measuring CD62L expression in the T cell cultures manufactured in Example 1. Mouse models have shown that CD62L expression identifies potent T cells; T cells with greater anti-tumor efficacy after adoptive transfer. […] FIG. 2. A pairwise T test was performed on all day seven cultures (each concentration of MK-2206 was compared to 0 μM MK-2206: *p<0.05, **p<0.01).

T cells [2] = experiment: T cell proliferation (CellTrace Violet dilution, flow cytometry) of PBMC-derived T cells cultured with AKT inhibitor; format: cell-based
Description: The purpose of this experiment was to determine the effect of Akt inhibitors on T cell proliferation. The impact of MK-2206 (Selleckchem) on T cell proliferation was assessed by measuring T cell division. Peripheral blood mononuclear cells (PBMC) are a heterogeneous cellular population containing T cells. PBMC were harvested from normal donors and labeled with a fluorescent dye (CellTrace® Violet, Molecular Probes), whose intensity is progressively diluted by a factor of two with each cell division. The labeled PBMCs were used as a source of cells for T cell expansion. […] The impact of MK-2206 on cell division was assayed by evaluating CellTrace Violet dilution with flow cytometry after the addition of 0.025 μM, 0.074 μM, 0.222 μM, 0.67 μM, or 2.0 μM, MK-2206 to the T cultures at day 0. […] A pairwise t test was performed on all day seven cultures; (each concentration of MK-2206 was compared to 0 μM MK-2206: the cultures were not statistically different at the p≤0.05 level).

anti-BCMA CAR T cells = experiment: CD62L expression on anti-BCMA CAR T cells by flow cytometry at the end of culture with inhibitor; format: cell-based; conditions: ten days of culture with IL-2 and optimized dose of inhibitor; three normal donors
Description: CAR T cells were cultured with either MK-2206 or triciribine phosphate—TCN (AKT inhibitors) or ZSTK474 (PI3K inhibitor). CAR T cells specific for B cell maturation antigen (BCMA) were used in these set of experiments. CAR T cell cultures were performed using a system directly scalable to large clinical manufacturing processes. […] 2×10^8 transducing units of lentivirus encoding anti-BCMA CARs were added one day after culture initiation. […] At the end of culture, the anti-BCMA CAR T cells were interrogated for phenotype. Expression of CD62L on anti-BCMA CAR T cells was assessed by flow cytometry at the end of culture. Anti-BCMA CAR T cells were specifically identified using recombinant human BCMA-IgG Fc conjugated to PE. CD62L expression was determined with a co-stain using an antibody specific to CD62L. […] (FIG. 3).

[3] = tested on: multiple myeloma tumors (RPMI-8226); experiment: Anti-tumor activity of cultured anti-BCMA CAR T cells in sub cutaneous multiple myeloma tumor model; format: in vivo, mice; conditions: 100 mm^3 sub cutaneous RPMI-8226 tumors; 1×10^6 CAR-positive cells infused
Description: Anti-BCMA CAR T cells treated with MK-2206, TCN, or ZSTK474 as described in Example 3 were tested to evaluate whether increased CD62L expression was associated with increased anti-tumor activity. […] Animals with 100 mm^3 sub cutaneous multiple myeloma tumors (RPMI-8226) were infused with equivalent CAR T cell doses (1×10^6 CAR-positive cells).

RPMI-8226 = experiment: Persistence of anti-BCMA CAR T cells: RPMI-8226 tumor rechallenge; format: in vivo, mice; conditions: rechallenged 13 days later with RPMI-8226 on the opposite flank after complete regression
Description: Persistence of anti-BCMA CAR T cells was evaluated by re-challenging tumors in mice that had complete regression.

| Compound | anti-tumor activity (Daudi tumor progression) of anti-BCMA CAR T cells cultured with the agent (Daudi tumor) | CD62L expression on T cells compared to no treatment control (T cells [1]; seven days of culture in the presence of IL-2, all concentrations tested) | CD62L expression on T cells compared to no treatment control (T cells [1]; three days of culture with MK-2206) | T cell division / proliferation compared to vehicle or non-treated controls (T cells [2]; seven days of culture, 0.025-2.0 μM MK-2206 with IL-2, pairwise t test p≤0.05) | T cell division / proliferation compared to no treatment control (T cells [2]; three days of culture, 0.025-2.0 μM MK-2206 with IL-2, CD3 and CD28 antibodies) | CD62L expression on anti-BCMA CAR T cells compared to cultures with IL-2 alone (anti-BCMA CAR T cells) | anti-tumor activity of anti-BCMA CAR T cells cultured with the agent [3] | tumor outgrowth / engraftment after rechallenge in animals treated with anti-BCMA CAR T cells cultured with the agent (RPMI-8226) |
| --- | --- | --- | --- | --- | --- | --- | --- | --- |
| NC1(c2ccc(-c3nc4ccn5c(=O)[nH]nc5c4cc3-c3ccccc3)cc2)CCC1 [MK-2206] | complete tumor regression | significantly increases CD62L expression at all concentrations; also recorded: significant higher levels of CD62L expression | not substantially different | no statistically significant differences in T cell division; also recorded: not substantially different | did not substantially decrease T cell division; also recorded: only slightly decreased | significantly higher CD62L expression | – | – |
| CN1N=C(N)c2cn([C@@H]3O[C@H](COP(=O)(O)O)[C@@H](O)[C@H]3O)c3ncnc1c23 [TCN, triciribine phosphate] | – | – | – | – | – | not | did not show an anti-tumor response; also recorded: completely abolished any anti-tumor responses | – |
| FC(F)c1nc2ccccc2n1-c1nc(N2CCOCC2)nc(N2CCOCC2)n1 [ZSTK474] | complete tumor regression | – | – | – | – | significantly higher CD62L expression | – | none of the animals treated with ZSTK474-cultured anti-BCMA CAR T cells had any evidence of tumor engraftment |
